# Test results as given in US20220397566A1, “GAMMA-SECRETASE STABILIZING COMPOUND SCREENING ASSAY” (VIB VZW, priority 2019, published 2022).
# Key:
# PSEN1/g-secretase = PSEN1/g-secretase (Homo sapiens, UniProt P49768); test: GFP-PSEN1 relocation in primary hippocampal neurons; format: cell-based; set-up: expressed in transfected cells; host or cells: rat (E18) primary hippocampal neurons, lentiviral pFUGW-GFP-PSEN1; details: rat primary hippocampal neurons, 1 μM
# Procedure: FIG. 1. DAPT relocates PSEN1/g-secretase to late endosomes. (A) PSEN1 and PSEN2 double knock-out (dKO) MEFs stably expressing GFP-PSEN1 or GFP-PSEN2 were treated for 16 h with 1 μM of DAPT or DMSO and immunostained for GFP (green) and LAMP1 antibodies (red). (B) Quantification of (A) using Mander's coefficient. (C) Ratio of GFP intensity in LAMP1-positive structures over total GFP intensity in the cell, normalized to DMSO-treated cells (control=Ctrl). (D) Quantification of size area of LAMP1-positive organelles per cell showing no significant differences between DMSO and DAPT-treated cells. (E) PSEN1, PSEN2 and NCT triple KO MEFs stably rescued with NCT-SNAP and GFP-PSEN1 were treated for 16 h with 1 μM of DAPT or DMSO (Ctrl). Prior to fixation, SNAP-Cell 647-SiR was added to label NCT-SNAP (red for Merge2). After 1 h, cells were fixed and immunostained for GFP (green) and LAMP1 (red for Merge2). Two merged images are shown. […] All graphs show the median with 95% confidence interval (n=3, ˜20 cells per experiments; p-values are calculated using Mann-Whitney test; ns means non-significant). […]
# The plasmids pSG5-C99-3×FLAG and pMSCV-GFP-PSEN1-wt and FADs, pFUGW-GFP-PSEN1 were previously described (Sannerud et al 2016 Cell 166). […] Primary hippocampal neurons were infected at 3 to 4 days in vitro (DIV) and analyzed at 7 DIV.
# transferrin receptor = test: Cell surface biotinylation internalization assay, transferrin receptor; format: cell-based, mouse; details: 16 h time point, DAPT 1 μM
# Procedure: All reagents, except otherwise stated, were kept on ice. Cells (450.000 cells for 1 h kinetic and 300.000 cells for 16 h) were plated on 6-cm dishes. 48 h after plating, cells were placed on ice, washed in PBS (pH 8) and next incubated in PBS (pH 8) supplemented with 0.25 mg/ml sulfo-NHS-SS-Biotin (Pierce) (10 min at 4° C.). Excess of biotin was washed out with PBS and cells were incubated in quench buffer (0.5% BSA, 100 mM Glycine in PBS) for 15 min at 4° C. Cells were then washed with PBS and incubated at 37° C. in complete pre-warmed medium (with or without DAPT 1 μM) for the appropriate time or kept at 4° C. as a control. Endocytosis was quickly stopped by placing the dishes back on ice and washing the cells with ice-cold PBS. Remaining biotin at the cell surface was cleaved off by incubating the cells twice in PBS containing 100 mM 2-sodium-2-mercaptoethanesulfonate (Sigma) as a reducing agent (15 min at 4° C.). […] Total protein was measured and biotinylated proteins were pulled down from equal amounts of extracts using streptavidin Sepharose beads (Pierce) (4° C., overnight on a rotation wheel). […] To evaluate the internalized pool for each protein to total cell surface, the (R37-R0)/NR*100 ratio for each time point were quantified. For the 16 h time point, the R37/NR*100 were quantified for each condition. […]
smiles,measurement,setting,value
"C[C@H](NC(=O)Cc1cc(F)cc(F)c1)C(=O)N[C@H](C(=O)OC(C)(C)C)c1ccccc1 [DAPT, N—[N-(3,5-difluorophenacetyl)-L-alanyl]-S-phenylglycine t-butyl ester]",relocation of GFP-PSEN1,PSEN1/g-secretase,Identical observations
same,biotinylated transferrin receptor pulled down,transferrin receptor,no differences were found
